Experimental data: PMC6407913, “DREADD Agonist 21 Is an Effective Agonist for Muscarinic-Based DREADDs in Vitro and in Vivo” (ACS Pharmacology & Translational Science, 2018)
Values joined by “and” are separate entries in the source; they are usually repeats but may differ in a detail not shown here. Equal values may be shown once. Read-outs that look alike come from different tables or passages of the source.

How the values were obtained:
Assay in all cases: NIMH PDSP radioligand binding, membranes
DOR = DOR (Homo sapiens, UniProt P41143)
Procedure: (§1) Radioligand binding assays with membrane preparations to determine binding affinity were carried out as outlined before[540] and by the National Institute of Mental Health’s Psychoactive Drug Screening Program (NIMH PDSP) (https://pdsp.unc.edu/), Contract # HHSN-271–2013–00017-C. The NIMH PDSP is Directed by B.L.R. at the University of North Carolina at Chapel Hill, Chapel Hill, NC, and Project Officer Jamie Driscoll at NIMH, Bethesda, MD.

D3 = D3 (Homo sapiens, UniProt P35462)
Sequence of D3 (P35462 whole entry): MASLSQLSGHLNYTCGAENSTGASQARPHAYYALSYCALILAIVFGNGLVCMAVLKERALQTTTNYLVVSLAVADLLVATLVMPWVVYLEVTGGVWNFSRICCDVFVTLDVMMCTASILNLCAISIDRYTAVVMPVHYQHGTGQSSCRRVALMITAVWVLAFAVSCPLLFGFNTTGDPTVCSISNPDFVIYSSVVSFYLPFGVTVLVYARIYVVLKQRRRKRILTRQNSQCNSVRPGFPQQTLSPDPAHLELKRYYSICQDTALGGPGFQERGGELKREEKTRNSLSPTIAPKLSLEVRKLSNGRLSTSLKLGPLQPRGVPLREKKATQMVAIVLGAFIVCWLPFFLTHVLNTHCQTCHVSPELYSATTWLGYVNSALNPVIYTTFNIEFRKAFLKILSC
Procedure: as §1

5-HT1B = target: T1, 5-HT1B (Homo sapiens, UniProt P28222)
T1 construct: NIMH PDSP
T1 sequence (P28222 whole entry, species assumed): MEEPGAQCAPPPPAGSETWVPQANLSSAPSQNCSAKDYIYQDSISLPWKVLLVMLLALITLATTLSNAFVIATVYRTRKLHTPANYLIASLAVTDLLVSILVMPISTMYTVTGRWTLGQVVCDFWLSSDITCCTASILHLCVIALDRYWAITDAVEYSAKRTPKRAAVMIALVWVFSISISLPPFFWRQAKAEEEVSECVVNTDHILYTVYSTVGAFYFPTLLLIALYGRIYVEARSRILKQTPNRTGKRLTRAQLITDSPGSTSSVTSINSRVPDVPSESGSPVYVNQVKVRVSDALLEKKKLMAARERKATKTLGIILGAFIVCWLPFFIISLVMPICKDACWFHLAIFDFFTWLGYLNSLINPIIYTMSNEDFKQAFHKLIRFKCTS
Procedure: as §1

H1 = H1 (Homo sapiens, UniProt P35367)
Procedure: as §1

Alpha1A = target: T2, Alpha1A (Homo sapiens, UniProt P35348)
T2 construct: NIMH PDSP
T2 sequence (P35348 1-466): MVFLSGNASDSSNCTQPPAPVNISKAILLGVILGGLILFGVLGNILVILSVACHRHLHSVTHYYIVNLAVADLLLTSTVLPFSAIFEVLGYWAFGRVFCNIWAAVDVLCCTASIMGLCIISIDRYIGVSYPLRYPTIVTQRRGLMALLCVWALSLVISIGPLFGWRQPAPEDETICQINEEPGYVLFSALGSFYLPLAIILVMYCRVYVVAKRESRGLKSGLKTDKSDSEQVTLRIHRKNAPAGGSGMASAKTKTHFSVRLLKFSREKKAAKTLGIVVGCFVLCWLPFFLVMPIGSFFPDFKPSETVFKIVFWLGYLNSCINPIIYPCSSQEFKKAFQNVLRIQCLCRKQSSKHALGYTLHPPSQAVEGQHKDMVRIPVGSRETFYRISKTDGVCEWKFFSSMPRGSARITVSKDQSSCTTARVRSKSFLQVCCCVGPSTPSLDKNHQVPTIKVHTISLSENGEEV
Procedure: as §1

H3 = H3 (Homo sapiens, UniProt Q9Y5N1)
Procedure: as §1

5-HT1A = target: T3, 5-HT1A (Homo sapiens, UniProt P08908)
T3 construct: NIMH PDSP
T3 sequence (P08908 whole entry, species assumed): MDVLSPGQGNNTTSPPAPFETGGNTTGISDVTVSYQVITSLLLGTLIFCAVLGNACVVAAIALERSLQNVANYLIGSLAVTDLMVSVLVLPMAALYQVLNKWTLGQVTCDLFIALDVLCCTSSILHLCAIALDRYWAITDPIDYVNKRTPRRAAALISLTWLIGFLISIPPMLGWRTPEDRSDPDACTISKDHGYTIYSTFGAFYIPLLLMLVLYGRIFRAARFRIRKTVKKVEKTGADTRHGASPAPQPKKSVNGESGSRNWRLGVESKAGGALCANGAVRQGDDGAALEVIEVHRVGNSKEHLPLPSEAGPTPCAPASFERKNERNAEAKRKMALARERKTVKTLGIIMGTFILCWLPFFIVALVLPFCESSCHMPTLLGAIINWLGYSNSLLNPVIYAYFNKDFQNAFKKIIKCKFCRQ
Procedure: as §1

Beta2 = Beta2 (Homo sapiens, UniProt P07550)
Procedure: as §1

Alpha1D = target: T4, Alpha1D (Homo sapiens, UniProt P25100)
T4 construct: NIMH PDSP
T4 sequence (P25100 1-572): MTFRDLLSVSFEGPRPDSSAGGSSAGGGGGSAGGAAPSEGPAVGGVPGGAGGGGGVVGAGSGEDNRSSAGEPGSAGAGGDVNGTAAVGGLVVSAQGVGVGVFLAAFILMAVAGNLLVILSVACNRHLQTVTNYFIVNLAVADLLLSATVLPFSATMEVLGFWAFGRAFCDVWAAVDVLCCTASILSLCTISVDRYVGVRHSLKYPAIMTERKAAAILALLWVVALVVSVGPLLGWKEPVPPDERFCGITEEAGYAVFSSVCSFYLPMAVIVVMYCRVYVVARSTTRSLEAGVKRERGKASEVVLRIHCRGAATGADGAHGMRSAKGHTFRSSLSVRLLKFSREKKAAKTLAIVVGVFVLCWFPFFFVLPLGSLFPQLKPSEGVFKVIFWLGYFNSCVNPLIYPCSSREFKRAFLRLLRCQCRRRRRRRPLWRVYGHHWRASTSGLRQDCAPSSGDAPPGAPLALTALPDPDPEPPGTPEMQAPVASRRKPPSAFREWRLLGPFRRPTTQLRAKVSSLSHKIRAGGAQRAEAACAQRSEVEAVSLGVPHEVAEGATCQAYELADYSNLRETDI
Procedure: as §1

CB2 = target: T5, CB2 (Homo sapiens, UniProt P34972)
T5 construct: NIMH PDSP
Procedure: as §1

5-HT3 = 5-HT3 (Homo sapiens, UniProt P46098)
Sequence of 5-HT3 (P46098 24-478, species assumed): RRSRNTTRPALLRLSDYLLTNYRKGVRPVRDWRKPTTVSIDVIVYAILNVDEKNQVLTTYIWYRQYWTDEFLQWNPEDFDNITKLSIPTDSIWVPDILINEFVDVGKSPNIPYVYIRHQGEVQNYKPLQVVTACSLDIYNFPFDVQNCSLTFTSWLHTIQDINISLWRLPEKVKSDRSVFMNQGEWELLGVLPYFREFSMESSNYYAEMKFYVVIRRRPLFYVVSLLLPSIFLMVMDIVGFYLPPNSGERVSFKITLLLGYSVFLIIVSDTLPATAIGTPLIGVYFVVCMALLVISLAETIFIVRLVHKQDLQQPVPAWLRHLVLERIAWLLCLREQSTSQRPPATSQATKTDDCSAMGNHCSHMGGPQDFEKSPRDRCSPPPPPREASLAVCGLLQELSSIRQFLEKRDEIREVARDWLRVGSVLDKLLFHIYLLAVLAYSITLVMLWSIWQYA
Procedure: as §1

Alpha2A = target: T6, Alpha2A (Homo sapiens, UniProt P08913)
T6 construct: NIMH PDSP
Procedure: as §1

M2 = M2 (Homo sapiens, UniProt P08172)
Sequence of M2 (P08172 whole entry): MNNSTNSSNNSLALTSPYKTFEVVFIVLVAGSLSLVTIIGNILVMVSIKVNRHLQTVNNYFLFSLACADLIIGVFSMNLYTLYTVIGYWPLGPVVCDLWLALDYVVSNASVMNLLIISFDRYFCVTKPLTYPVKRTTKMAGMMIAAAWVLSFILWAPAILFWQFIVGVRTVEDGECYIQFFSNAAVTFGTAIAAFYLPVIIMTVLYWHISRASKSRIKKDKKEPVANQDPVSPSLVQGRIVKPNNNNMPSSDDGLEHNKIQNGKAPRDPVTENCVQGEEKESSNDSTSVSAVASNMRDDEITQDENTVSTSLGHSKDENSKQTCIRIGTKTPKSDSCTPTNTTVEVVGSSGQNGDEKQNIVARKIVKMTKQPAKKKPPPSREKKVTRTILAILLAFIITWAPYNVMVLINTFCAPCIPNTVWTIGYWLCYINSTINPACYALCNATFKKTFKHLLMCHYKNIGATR
Procedure: as §1

KOR = KOR (Homo sapiens, UniProt P41145)
Sequence of KOR (P41145 whole entry): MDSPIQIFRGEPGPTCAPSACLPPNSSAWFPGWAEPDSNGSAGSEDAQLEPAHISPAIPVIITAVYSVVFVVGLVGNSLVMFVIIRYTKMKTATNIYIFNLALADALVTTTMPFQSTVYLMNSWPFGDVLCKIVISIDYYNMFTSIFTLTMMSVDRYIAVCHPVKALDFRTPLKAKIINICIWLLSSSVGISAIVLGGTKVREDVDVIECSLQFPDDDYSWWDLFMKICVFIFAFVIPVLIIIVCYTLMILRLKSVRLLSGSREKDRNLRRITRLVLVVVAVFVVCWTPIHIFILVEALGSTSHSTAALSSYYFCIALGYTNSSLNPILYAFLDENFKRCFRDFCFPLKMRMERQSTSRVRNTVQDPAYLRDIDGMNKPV
Procedure: as §1

5-HT5A = target: T7, 5-HT5A (Homo sapiens, UniProt P47898)
T7 construct: NIMH PDSP
Procedure: as §1

5-HT2A = 5-HT2A (Homo sapiens, UniProt P28223)
Sequence of 5-HT2A (P28223 whole entry, species assumed): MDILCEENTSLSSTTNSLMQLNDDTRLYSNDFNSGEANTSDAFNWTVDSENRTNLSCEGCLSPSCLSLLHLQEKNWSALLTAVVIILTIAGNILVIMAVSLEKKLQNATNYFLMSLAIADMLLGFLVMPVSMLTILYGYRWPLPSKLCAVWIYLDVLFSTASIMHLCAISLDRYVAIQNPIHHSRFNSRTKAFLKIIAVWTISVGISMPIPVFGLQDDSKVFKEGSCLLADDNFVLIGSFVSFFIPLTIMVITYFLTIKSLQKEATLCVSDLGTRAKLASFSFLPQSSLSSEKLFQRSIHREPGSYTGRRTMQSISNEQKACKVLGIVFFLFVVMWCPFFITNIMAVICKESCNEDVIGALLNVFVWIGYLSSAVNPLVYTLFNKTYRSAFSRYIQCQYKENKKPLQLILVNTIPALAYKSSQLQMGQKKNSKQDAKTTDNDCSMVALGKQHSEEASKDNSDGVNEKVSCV
Procedure: as §1

D2 = D2 (Homo sapiens, UniProt P14416)
Sequence of D2 (P14416 whole entry): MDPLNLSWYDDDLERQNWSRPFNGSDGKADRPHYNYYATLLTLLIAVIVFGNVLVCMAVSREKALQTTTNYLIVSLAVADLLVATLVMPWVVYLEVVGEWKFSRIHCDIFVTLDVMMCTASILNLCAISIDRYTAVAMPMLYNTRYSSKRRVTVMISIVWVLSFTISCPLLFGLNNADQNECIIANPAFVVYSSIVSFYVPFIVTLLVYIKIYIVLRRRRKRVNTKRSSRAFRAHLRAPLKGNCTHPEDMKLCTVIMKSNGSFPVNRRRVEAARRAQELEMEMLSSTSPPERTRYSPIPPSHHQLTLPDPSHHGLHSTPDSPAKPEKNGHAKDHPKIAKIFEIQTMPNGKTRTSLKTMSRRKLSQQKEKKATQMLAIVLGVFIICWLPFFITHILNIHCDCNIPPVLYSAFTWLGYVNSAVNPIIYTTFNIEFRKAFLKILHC
Procedure: as §1

Alpha2B = target: T8, Alpha2B (Homo sapiens, UniProt P18089)
T8 construct: NIMH PDSP
Procedure: as §1

5-HT6 = target: T9, 5-HT6 (Homo sapiens, UniProt P50406)
T9 construct: NIMH PDSP
Procedure: as §1

5-HT7 = target: T10, 5-HT7 (Homo sapiens, UniProt P34969)
T10 construct: NIMH PDSP
T10 sequence (P34969 whole entry, species assumed): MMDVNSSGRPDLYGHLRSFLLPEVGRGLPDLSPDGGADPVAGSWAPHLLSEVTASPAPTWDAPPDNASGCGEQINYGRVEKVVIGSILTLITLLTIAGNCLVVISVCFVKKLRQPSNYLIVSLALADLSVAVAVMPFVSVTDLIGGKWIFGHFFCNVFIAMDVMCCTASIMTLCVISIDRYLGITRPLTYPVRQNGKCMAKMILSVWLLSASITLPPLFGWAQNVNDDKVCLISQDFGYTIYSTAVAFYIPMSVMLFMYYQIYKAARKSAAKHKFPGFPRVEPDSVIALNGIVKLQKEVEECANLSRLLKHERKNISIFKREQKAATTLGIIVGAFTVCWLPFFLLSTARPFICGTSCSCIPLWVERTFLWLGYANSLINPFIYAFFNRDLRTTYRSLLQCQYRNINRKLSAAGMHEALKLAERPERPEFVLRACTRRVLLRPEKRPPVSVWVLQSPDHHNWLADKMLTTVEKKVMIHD
Procedure: as §1

M5 = M5 (Homo sapiens, UniProt P08912)
Sequence of M5 (P08912 whole entry): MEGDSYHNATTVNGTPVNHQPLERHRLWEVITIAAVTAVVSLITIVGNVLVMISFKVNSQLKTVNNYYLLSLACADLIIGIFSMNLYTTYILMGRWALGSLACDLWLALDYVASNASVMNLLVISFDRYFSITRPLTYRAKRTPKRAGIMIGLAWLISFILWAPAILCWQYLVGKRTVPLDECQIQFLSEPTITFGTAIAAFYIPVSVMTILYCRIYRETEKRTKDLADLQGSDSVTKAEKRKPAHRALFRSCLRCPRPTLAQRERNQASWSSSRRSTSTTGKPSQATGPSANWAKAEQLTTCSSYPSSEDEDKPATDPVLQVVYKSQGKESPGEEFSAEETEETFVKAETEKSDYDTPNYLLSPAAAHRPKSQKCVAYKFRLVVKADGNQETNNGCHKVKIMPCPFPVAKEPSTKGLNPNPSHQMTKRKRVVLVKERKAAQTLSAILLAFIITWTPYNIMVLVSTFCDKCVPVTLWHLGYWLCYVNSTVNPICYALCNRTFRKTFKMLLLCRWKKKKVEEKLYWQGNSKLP
Procedure: as §1

D1 = D1 (Homo sapiens, UniProt P21728)
Sequence of D1 (P21728 whole entry): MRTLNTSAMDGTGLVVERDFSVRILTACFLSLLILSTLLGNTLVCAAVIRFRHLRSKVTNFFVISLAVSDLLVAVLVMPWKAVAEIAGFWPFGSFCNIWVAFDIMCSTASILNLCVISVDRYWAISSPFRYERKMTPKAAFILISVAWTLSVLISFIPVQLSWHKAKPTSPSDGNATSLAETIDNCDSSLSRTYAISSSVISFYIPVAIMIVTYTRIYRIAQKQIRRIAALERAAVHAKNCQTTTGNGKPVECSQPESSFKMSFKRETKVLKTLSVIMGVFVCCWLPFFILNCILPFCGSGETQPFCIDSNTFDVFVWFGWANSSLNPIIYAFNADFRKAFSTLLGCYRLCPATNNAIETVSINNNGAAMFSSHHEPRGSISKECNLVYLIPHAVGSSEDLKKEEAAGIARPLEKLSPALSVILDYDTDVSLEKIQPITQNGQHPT
Procedure: as §1

[1] = read-out: Ki #1-#5 (individual assays)
[2] = read-out: log Ki (individual assays) (converted)

Structure (SMILES): c1ccc2c(c1)N=C(N1CCNCC1)c1ccccc1N2 [C21, 11-(1-piperazinyl)-5H-dibenzo[b,e][1,4]diazepine]
- Ki (DOR; read-out: Ki): 0.387 µM
- Ki (DOR; [1]): 0.685 µM and 0.241 µM and 0.373 µM and 0.363 µM
- Ki (D3; read-out: Ki): 0.87 µM
- Ki (D3; [1]): 1.52 µM and 1.16 µM and 0.372 µM
- Ki (5-HT1B; read-out: Ki): 3.64 µM
- Ki (5-HT1B; [1]): 4.59 µM and 4.53 µM and 2.32 µM
- Ki (5-HT1B; [2]): 4.57 µM
- Ki (H1; [1]): 0.0045 µM
- Ki (H1; [2]): 0.00347 µM and 0.0024 µM
- Ki (H1; read-out: pKi (mean) (converted)): 0.00339 µM
- log Ki (individual assays) (Alpha1A): <5
- Ki (Alpha1A; read-out: Ki): > 10 µM
- Ki (Alpha1A; [1]): > 10 µM
- Ki (H3; read-out: Ki): 4.94 µM
- Ki (H3; [1]): 6.85 µM and 4.58 µM and 3.85 µM
- Ki (5-HT1A; read-out: Ki): 0.0809 µM
- Ki (5-HT1A; [1]): 0.0645 µM and 0.144 µM and 0.057 µM
- Ki (Beta2; read-out: Ki): > 10 µM
- Ki (Beta2; [1]): > 10 µM
- log Ki (individual assays) (Alpha1D): <5
- Ki (Alpha1D; read-out: Ki): > 10 µM
- Ki (Alpha1D; [1]): > 10 µM
- Ki (CB2; read-out: Ki): > 10 µM
- Ki (CB2; [1]): > 10 µM
- Ki (5-HT3; read-out: Ki): 0.36 µM
- Ki (5-HT3; [1]): 0.858 µM and 0.321 µM and 0.169 µM
- Ki (Alpha2A; read-out: Ki): 1.77 µM
- Ki (Alpha2A; [1]): 4.75 µM and 0.809 µM and 1.44 µM
- Ki (M2; read-out: Ki): 0.146 µM
- Ki (M2; [1]): 0.246 µM and 0.139 µM and 0.091 µM
- Ki (KOR; read-out: Ki): 2.98 µM
- Ki (KOR; [1]): 6.69 µM and 2.68 µM and 1.47 µM
- Ki (5-HT5A; read-out: Ki): 1.91 µM
- Ki (5-HT5A; [1]): 3.3 µM and 1.4 µM and 2.02 µM and 1.43 µM
- Ki (5-HT2A; read-out: Ki): 0.0443 µM
- Ki (5-HT2A; [1]): 0.0589 µM and 0.051 µM
- Ki (5-HT2A; [2]): 0.0288 µM
- Ki (D2; read-out: Ki): 4.57 µM
- Ki (D2; [1]): 2.75 µM and 4.74 µM and 7.34 µM
- Ki (Alpha2B; read-out: Ki): 0.474 µM
- Ki (Alpha2B; [1]): 1.52 µM and 0.157 µM and 0.247 µM and 0.857 µM
- Ki (5-HT6; read-out: Ki): 0.266 µM
- Ki (5-HT6; [1]): 0.421 µM and 0.193 µM and 0.232 µM
- Ki (5-HT7; read-out: Ki): 0.107 µM
- Ki (5-HT7; [1]): 0.104 µM and 0.077 µM and 0.152 µM
- Ki (M5; read-out: Ki): 0.421 µM
- Ki (M5; [1]): 0.175 µM and 0.395 µM and 1.08 µM
- Ki (D1; read-out: Ki): 0.479 µM
- Ki (D1; [1]): 0.525 µM and 0.316 µM and 0.661 µM
